Test results as given in PubChem BioAssay AID2060350 (Molecular Pharmacology Branch, DTP, NCI, 2025).

System: PDC 521955-158-R6-J3 spheroids, viability
Assay: Anticancer human tumor 521955-158-R6-J3-PDC patient-derived pancreatic carcinoma cell line growth inhibition [TAK]
Conditions: spheroids with HUVEC and MSC; for IC50: curve of first compound; for viability, T/C: stronger effect = lower value; active = viability on the fitted dose curve at most 10% of control; inactive = the rest
From the text: Combinatorial screen of targeted agents with TAK-243 and ipatasertib in multi-cell type tumor spheroids
A high-throughput screen of multi-cell type tumor spheroids was designed to identify active combinations of targeted small molecules and TAK-243 or ipatasertib. Complex spheroids include a stromal component modeled by human endothelial cells (HUVEC) and fibroblasts modeled by human mesenchymal stem cells (MSCs). The concentration ranges selected for each drug and investigational agent were based upon clinically achievable concentrations if the clinical Cmax of the agent was known.
Compounds. The drugs and investigational agents: TAK-243 (785004), ipatasertib (767898), everolimus (733504), selumetinib (741078), bortezomib (756655), trametinib (758246), ixazomib (758254), vemurafenib (761431), dabrafenib (764134), sapanisertib (764658), alpelisib (765974), and copanlisib (816437), were obtained from the National Cancer Institute (NCI) Developmental Therapeutics Program Chemical Repository. The FDA-approved anticancer drug set is available from the NCI Developmental Therapeutics Program. […] The stock solutions were prepared in dimethyl sulfoxide (DMSO, Sigma-Aldrich, St. Louis, MO, cat. D2650) at 800-fold the tested concentration and stored at -70 degrees C prior to their use. All drugs and investigational agents were tested over a range starting from a high concentration at or near the clinical Cmax and decreasing in half-log increments. If the clinical Cmax for an agent had not been determined, the highest concentration tested was 10 microM.
NCI60 Cell Culture. NCI60 cell lines were obtained from the NCI Developmental Therapeutics Program Tumor Repository. For each lot of cells, the Repository performed Applied Biosystems AmpFLSTR Identifiler testing with PCR amplification to confirm consistency with the published Identifier STR profile for each cell line. Cells were kept in continuous culture for no more than 20 passages. The optimal seeding densities for each of the cell lines at each time point assessed were determined prior to performing the concentration response studies. Briefly, the NCI60 human tumor lines were grown as monolayers in RPMI 1640 medium supplemented with 10% FBS and 2 mmol/L L-glutamine.
An additional 2 lines were from the NCI60 cell line panel including melanomas, MALME-3M and SK-MEL-2. Pooled donor human umbilical vein endothelial cells (HUVEC, Lonza, cat. CC-2519) and human mesenchymal stem cells (hMSC, Lonza, cat. PT-2501) were purchased from Lonza (Walkersville, MD).
PDMR cell lines were grown in complete medium (DC medium): Dulbecco's modified Eagle's medium (DMEM)/F12 supplemented with 5% fetal bovine serum (FBS), 2 mM L-glutamine, 100 U/mL penicillin and 100 µg/ml streptomycin, 0.4 µg/ml hydrocortisone, 10 ng/ml epidermal growth factor (EGF) recombinant human protein, 24 µg/mL adenine, and 0.1 mg/mL primocin. During culture from frozen stock vials, PDMR cells were cultured in the same medium containing 10 µM Y-27632 (see Table 3). The PDCs were cultured in complete DMEM/F12 media without 10 microM Y-27632 dihydrochloride for at least two passages prior to the screen. The pooled donor HUVEC and hMSC were cultured in endothelial cell growth medium 2 (PromoCell, Heidelberg, Germany, cat. C-22011) and mesenchymal stem cell growth medium 2 (PromoCell, cat. C-28009), respectively. For all experiments, HUVEC and hMSC were used at passages </=5.
For the pre-screen, cell seeding densities were determined from a titration spanning the range from 5,000 to 313 cells per well. The mct-spheroids including 60% malignant cells, 25% HUVEC and 15% MSC dispensed as a mixture into U-bottom Ultra-Low Attachment 384-well plates (Corning, NY)
High-throughput Drug Combination Screening.
Prior to their inoculation into 384-well plates, malignant cells, HUVEC, and hMSC were removed from T flasks using TrypLE express (Thermo Fisher Scientific, cat. 12605036) and harvested by centrifugation for 5 min at 233 x g. […]
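Note: spheroids exposed to drugs for 7 days before readout.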

CC(=O)Nc1cccc(-n2c(=O)n(C3CC3)c(=O)c3c(Nc4ccc(I)cc4F)n(C)c(=O)c(C)c32)c1 + CC(C)NCC(C(=O)N1CCN(c2ncnc3c2C(C)CC3O)CC1)c1ccc(Cl)cc1
2.3 nM: IC50 (second compound 9.49 µM)
inactive: viability, T/C (second compound 0.3 µM, first compound 94.9 pM) 79.6% | viability, T/C (second compound 0.3 µM, first compound 0.0003 µM) 75.7% | viability, T/C (second compound 0.3 µM, first compound 0.000949 µM) 67.9% | viability, T/C (second compound 0.3 µM, first compound 0.003 µM) 58.8% | viability, T/C (second compound 0.3 µM, first compound 0.00949 µM) 46.8% | viability, T/C (second compound 0.3 µM, first compound 0.03 µM) 35.6% | viability, T/C (second compound 0.949 µM, first compound 94.9 pM) 85.6% | viability, T/C (second compound 0.949 µM, first compound 0.0003 µM) 73.7% | viability, T/C (second compound 0.949 µM, first compound 0.000949 µM) 58.5% | viability, T/C (second compound 0.949 µM, first compound 0.003 µM) 49% | viability, T/C (second compound 0.949 µM, first compound 0.00949 µM) 38.3% | viability, T/C (second compound 0.949 µM, first compound 0.03 µM) 25.2% | viability, T/C (second compound 3 µM, first compound 94.9 pM) 78.9% | viability, T/C (second compound 3 µM, first compound 0.0003 µM) 62.1% | viability, T/C (second compound 3 µM, first compound 0.000949 µM) 54.4% | viability, T/C (second compound 3 µM, first compound 0.003 µM) 49% | viability, T/C (second compound 3 µM, first compound 0.00949 µM) 37.6% | viability, T/C (second compound 3 µM, first compound 0.03 µM) 22.2% | viability, T/C (second compound 9.49 µM, first compound 94.9 pM) 77.9% | viability, T/C (second compound 9.49 µM, first compound 0.0003 µM) 62.8% | viability, T/C (second compound 9.49 µM, first compound 0.000949 µM) 53.1% | viability, T/C (second compound 9.49 µM, first compound 0.003 µM) 53.4% | viability, T/C (second compound 9.49 µM, first compound 0.00949 µM) 37.4% | viability, T/C (second compound 9.49 µM, first compound 0.03 µM) 15.2% | viability, T/C (second compound 30 µM, first compound 94.9 pM) 71.9% | viability, T/C (second compound 30 µM, first compound 0.0003 µM) 59.6% | viability, T/C (second compound 30 µM, first compound 0.000949 µM) 55.8% | viability, T/C (second compound 30 µM, first compound 0.003 µM) 47.8% | viability, T/C (second compound 30 µM, first compound 0.00949 µM) 28.5% | viability, T/C (second compound 30 µM, first compound 0.03 µM) 16.1%
1.64 nM: IC50 (second compound 30 µM)
2.58 nM: IC50 (second compound 0.949 µM)
7.12 nM: IC50 (second compound 0.3 µM)
1.82 nM: IC50 (second compound 3 µM)

CC(C)CC(NC(=O)C(Cc1ccccc1)NC(=O)c1cnccn1)B(O)O (stereo not given) + CC(C)NCC(C(=O)N1CCN(c2ncnc3c2C(C)CC3O)CC1)c1ccc(Cl)cc1
5.96 nM: IC50 (second compound 0.3 µM)
inactive: viability, T/C (second compound 0.3 µM, first compound 31.6 pM) 94.4% | viability, T/C (second compound 0.3 µM, first compound 0.0001 µM) 95.4% | viability, T/C (second compound 0.3 µM, first compound 0.000316 µM) 94.5% | viability, T/C (second compound 0.3 µM, first compound 0.001 µM) 96.1% | viability, T/C (second compound 0.3 µM, first compound 0.00316 µM) 111% | viability, T/C (second compound 0.3 µM, first compound 0.01 µM) 10.6% | viability, T/C (second compound 0.949 µM, first compound 31.6 pM) 94.3% | viability, T/C (second compound 0.949 µM, first compound 0.0001 µM) 84.2% | viability, T/C (second compound 0.949 µM, first compound 0.000316 µM) 93.5% | viability, T/C (second compound 0.949 µM, first compound 0.001 µM) 103% | viability, T/C (second compound 0.949 µM, first compound 0.00316 µM) 109% | viability, T/C (second compound 3 µM, first compound 31.6 pM) 90.6% | viability, T/C (second compound 3 µM, first compound 0.0001 µM) 90.5% | viability, T/C (second compound 3 µM, first compound 0.000316 µM) 93% | viability, T/C (second compound 3 µM, first compound 0.001 µM) 93.7% | viability, T/C (second compound 3 µM, first compound 0.00316 µM) 113% | viability, T/C (second compound 9.49 µM, first compound 31.6 pM) 94.3% | viability, T/C (second compound 9.49 µM, first compound 0.0001 µM) 89% | viability, T/C (second compound 9.49 µM, first compound 0.000316 µM) 97.6% | viability, T/C (second compound 9.49 µM, first compound 0.001 µM) 96.1% | viability, T/C (second compound 9.49 µM, first compound 0.00316 µM) 104% | viability, T/C (second compound 9.49 µM, first compound 0.01 µM) 13.5% | viability, T/C (second compound 30 µM, first compound 31.6 pM) 93.8% | viability, T/C (second compound 30 µM, first compound 0.0001 µM) 92.1% | viability, T/C (second compound 30 µM, first compound 0.000316 µM) 89.9% | viability, T/C (second compound 30 µM, first compound 0.001 µM) 98.5% | viability, T/C (second compound 30 µM, first compound 0.00316 µM) 98.4%
6.02 nM: IC50 (second compound 9.49 µM)
5.65 nM: IC50 (second compound 30 µM)
5.71 nM: IC50 (second compound 3 µM)
active: viability, T/C (second compound 0.949 µM, first compound 0.01 µM) 8.36% | viability, T/C (second compound 3 µM, first compound 0.01 µM) 6.03% | viability, T/C (second compound 30 µM, first compound 0.01 µM) 6.17%
5.82 nM: IC50 (second compound 0.949 µM)
